Laboratory results reported in patent publication US12616193B2, “5-(1H-indol-3-yl)-oxazole, -oxadiazole and -furan derivatives as enhancers of sperm motility” (SPERMATECH AS, priority 2020, dated 2026).
pEC50: −log10 of the molar value. Where two headings read alike, the source gives them in different places.

What was measured:
sows [1] = experiment: Field trial pilot study, artificial insemination of sows (Example 5); format: in vivo, pig
Protocol: A pilot field study included 27 sows of which 13 received untreated control sperm and 14 received sperm treated with Compound No. 1 (“activator”). Insemination doses were collected from the same animals during the course of the experiment and contained pooled semen from three individual boars. 45 μl 100 mM activator solution in DMSO was added to 89 ml boar sperm (final concentration of 50 μM) directly before insemination which was carried out within 15 to 45 min. The sperm was transferred to an insemination bottle and then the activator was added. After placing the insemination catheter into the cervix of the sow, the bottle was connected, and the sperm sample was released into the sow. The sows received insemination doses on two subsequent days. After 30 to 35 days the animals were sacrificed, the uteri were removed and embryos were counted for all […]. Organ material from 5 activator-receiving sows and 5 sows from the control group were optically inspected and samples from the uterus, cervix and vagina were formalin-fixated for histology examination. […] The formalin preparations were cut and stained with hematoxylin eosin for histological examination. The histopathological assessment included a thorough evaluation of the epithelium of the mucosa and the underlying lamina propria. In both the epithelium and lamina propria, particular emphasis was placed on acute changes. In the epithelium, the acute changes included single cell necrosis/apoptosis and infiltration of polymorphonuclear leukocytes. In the lamina propria, infiltration of polymorphonuclear leukocytes was considered as the most important acute change. […] Infiltration of lymphocytes in the epithelium and lamina propria was considered to be within the normal range of all individuals. Flattening and possibly loss of surface epithelium were partly difficult to assess. Edema and bleeding in the lamina propria were detected in several individuals. Heat and age are the denominators of leukocyte infiltration in sows and are considered normal. The average number of embryos was determined for the sows of the control group (n=11, 11 sows were in pig after insemination) and the activator-receiving group (n=13, 13 sows in pig after insemination).

Human T-cells = experiment: Genotoxicity, comet assay (Example 4); format: cell-based
Protocol: Human T-cells (four concentrations of Compound No. 1 including 0 μM; two exposure times) were embedded in 1% agarose, lysed in cold 2.5 M NaCl, 0.1 M EDTA, 10 mM Tris buffer, and 1% Triton X-100, pH 10. Incubation with dithiothreitol and lithium diiodosalicylate was followed by incubation in cold 0.3M NaOH, and 1 mM EDTA for 20 min and then electrophoresis at 0.8 V/cm for 20 min in a cold room. After neutralization with PBS, and staining with SYBRGold (Invitrogen), slides were scored using the Comet Assay IV image analysis programme (Perceptive Instruments).

[2] = tested on: mice oocytes contacted with mice sperm cells; experiment: In vitro fertilization, mouse (Example 3); format: cell-based
Protocol: In vitro fertilization (IVF) studies were conducted to determine whether the activator compound No. 1 has any adverse effects on the fertilization process. Male mice were sacrificed, and the epididymis was opened to release the sperm into the appropriate buffer in a petri dish. The sperm cells were incubated with 50 μM of the activator compound for one hour before an aliquot was transferred to a petri dish containing oocytes. The cells were further incubated at 37° C. and 1-cell/2-cell eggs were counted after 24 hours. The experiment was performed in duplicates using sperm from the same epididymis and oocytes from two different mice.

boar sperm [3] = experiment: Effect of long-term storage at 18° C. on boar sperm, activator freshly added (Example 2); format: cell-based
Protocol: The effect of Compound No. 1 (“activator”) on the shelf-life of boar sperm was evaluated. Compound No. 1 was freshly added to stored boar sperm aliquots. The sperm samples were stored as aliquots in Eppendorf tubes (995 μl) at 18° C. During the course of one week 5 μl 10 mM activator solution in DMSO (50 μM final concentration) was added to one aliquot and the resulting solution was incubated in a water bath at for 12 min at 37° C. Subsequently, 10 μl semen samples were taken out and added to a counting chamber slide, incubated for 2 min at 37° C. and analysed as described in Example 1.

boar sperm [4] = experiment: Determination of boar sperm motility and progressive motility by CASA (Example 1); format: cell-based, Duroc boar; conditions: for pEC50: 0.2 h, 12 min at 37° C., activation-% relative to DMSO-only control
Protocol: Duroc boar sperm samples were received from Norsvin AS and contained pooled semen from three individual boars. Semen samples were stored in Androstar® extender (mini-tube) at 18° C. prior to use. Compound No. 1 was tested in duplicates, using 2-fold serial dilutions including 10 individual concentrations starting from 100 μM. 995 μL semen were aliquoted in Eppendorf tubes and 5 μL of Compound No. 1 diluted in DMSO were added leading to the described final concentrations. The resulting semen samples were mixed gently and incubated for 12 min at 37° C. in a water bath. Subsequently, 10 μL of each semen sample was added to a counting chamber slide (Leja) and incubated on a plate incubator at 37° C. Sperm motility, progressive motility and curvilinear velocity were determined using a CASA (Hamilton Thorne), starting from 14 min. For each chamber A and B 15 individual frames were analysed and motility as well as progressive motility data was read out. The data were converted into activation-% using DMSO-only controls (set to 100% activity) by determining the percental increase of either motility or progressive motility relative to the control sample without added Compound No. 1. For the determination of EC50 values, data were fitted using Prism8 (non-linear fit, absolute IC50, x is concentration, graphpad.com).

sows [5] = experiment: Field trial study, 441 sows (Example 6); format: in vivo, pig
Source text: Following the success of the pilot study reported in Example 5, a larger field trial study was conducting which included 441 sows. 224 sows received untreated control sperm and 217 received sperm treated with Compound No. 1 (“activator”).

[6] = 50 μM added to boar sperm stored at 18° C. for 1 to 8 days, FIG. 2
[7] = 217 sows with treated sperm vs 224 sows with untreated control sperm

O=C(CSc1nnc(-c2c[nH]c3ccccc23)o1)Nc1ccc2c(c1)OCO2 [Compound No. 1]
optical inspection of organ material (cervix, uteri, vaginae) (sows [1]; 5 activator-receiving sows, 30 to 35 days after insemination with sperm treated at 50 μM): mostly normal mucosa and no signs of lesions
sows in pig after insemination (sows [1]; of 14 sows receiving sperm treated at 50 μM (control 11 of 13)): 13
sows with abundant infiltration of polymorphonuclear leukocytes mostly in the cervix and uterus (sows [1]; of five sows in the activator group (control: one sow), histology): Three of the five sows
sows with necrosis/apoptosis detected (sows [1]; of five sows in the activator-receiving group (control: one), histology): one of the sows
pregnancy rates in the sows (sows [1]; sperm treated at 50 μM vs untreated control sperm): increase pregnancy rates
average increase of embryos per sow (sows [1]; vs control group, embryos counted after 30 to 35 days, FIG. 5): 2 embryos per sows
% Tail DNA (Human T-cells; 0.5 hr exposure, 5 μM): 0.2%
% Tail DNA (Human T-cells; 0.5 hr exposure, 50 μM): 0.6%
% Tail DNA (Human T-cells; 0.5 hr exposure, 500 μM): 0.4%
% Tail DNA (Human T-cells; 3 hr exposure, 5 μM): 0.5%
% Tail DNA (Human T-cells; 3 hr exposure, 50 μM): 0.1%
% Tail DNA (Human T-cells; 3 hr exposure, 500 μM): 0.2%
genotoxic effects (Human T-cells; up to 500 μM, 0.5 and 3 hr exposure): No genotoxic effects
interference with the fertilization process ([2]; 50 μM, mouse IVF): does not interfere with the fertilization process
fertility rates vs control ([2]; mouse sperm incubated with 50 μM for one hour, eggs counted after 24 hours): comparable to the control samples
motility of stored sperm samples (boar sperm [3]; [6]): increases motility and progressive motility, even after 7 days of storage
progressive motility of stored sperm samples (boar sperm [3]; [6]): increases motility and progressive motility, even after 7 days of storage
boar sperm shelf life (boar sperm [3]; 50 μM, storage at 18° C.): has a positive impact on boar sperm shelf life
pEC50 (boar sperm [4]; n=6, read-out: Absolute EC50 motility): 5.48
pEC50 (boar sperm [4]; n=6, read-out: absolute EC50 progressive motility): 4.95
motility (boar sperm [4]; FIG. 1B, n=4, up to 100 μM): increases both motility and progressive motility in a dose-dependent manner
progressive motility (boar sperm [4]; FIG. 1B, n=4, up to 100 μM): increases both motility and progressive motility in a dose-dependent manner
average increase in live piglets born per sow (sows [5]; [7]): ~1 live piglet born per sow
increase in pregnancy rate (sows [5]; [7]): 5%
weaning to service interval (WSI) (sows [5]; treated vs untreated control sperm): improved the weaning to service interval

OO [H2O2, reference compound]
% Tail DNA (Human T-cells; Control+ treatment): 75.4%
